In PubChem BioAssay (NCI):
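Abbreviation: GI50, concentration required for 50% inhibition of growth. The concentration for full growth arrest is given as TGI.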

Legend:
Assay in all cases: NCI-60 cell line screen, 384-well format
TK-10 renal = test system: TK-10 renal
MDA-MB-468 breast = test system: MDA-MB-468 breast
MCF7 breast = test system: MCF7 breast
UO-31 renal = test system: UO-31 renal
HT29 colon = test system: HT29 colon
BT-549 breast = test system: BT-549 breast
PC-3 prostate = test system: PC-3 prostate
SF-539 CNS = test system: SF-539 CNS
RPMI-8226 leukemia = test system: RPMI-8226 leukemia
HCT-116 colon = test system: HCT-116 colon
MOLT-4 leukemia = test system: MOLT-4 leukemia
SF-268 CNS = test system: SF-268 CNS
A549 NSCLC = test system: A549 NSCLC
M14 melanoma = test system: M14 melanoma
786-0 renal = test system: 786-0 renal
RXF 393 renal = test system: RXF 393 renal
HOP-92 NSCLC = test system: HOP-92 NSCLC
SK-MEL-5 melanoma = test system: SK-MEL-5 melanoma
OVCAR-4 ovarian = test system: OVCAR-4 ovarian
SF-295 CNS = test system: SF-295 CNS
SR leukemia = test system: SR leukemia
A498 renal = test system: A498 renal
NCI/ADR-RES ovarian = test system: NCI/ADR-RES ovarian
SNB-19 CNS = test system: SNB-19 CNS
NCI-H322M lung = test system: NCI-H322M lung
HL-60(TB) leukemia = test system: HL-60(TB) leukemia
SK-MEL-28 melanoma = test system: SK-MEL-28 melanoma
NCI-H522 lung = test system: NCI-H522 lung
SW-620 colon = test system: SW-620 colon
NCI-H460 NSCLC = test system: NCI-H460 NSCLC
UACC-257 melanoma = test system: UACC-257 melanoma
LOX IMVI melanoma = test system: LOX IMVI melanoma
COLO 205 colon = test system: COLO 205 colon
MDA-MB-435 melanoma = test system: MDA-MB-435 melanoma
U251 glioblastoma = test system: U251 glioblastoma
SN12C renal = test system: SN12C renal
KM12 colon = test system: KM12 colon
OVCAR-8 ovarian = test system: OVCAR-8 ovarian
MDA-MB-231 breast = test system: MDA-MB-231 breast
ACHN renal = test system: ACHN renal
SK-OV-3 ovarian = test system: SK-OV-3 ovarian
IGROV1 ovarian = test system: IGROV1 ovarian
HOP-62 NSCLC = test system: HOP-62 NSCLC
DU-145 prostate = test system: DU-145 prostate
HCT-15 colon = test system: HCT-15 colon
CCRF-CEM leukemia = test system: CCRF-CEM leukemia
OVCAR-3 ovarian = test system: OVCAR-3 ovarian
K-562 leukemia = test system: K-562 leukemia
CAKI-1 renal = test system: CAKI-1 renal
SK-MEL-2 melanoma = test system: SK-MEL-2 melanoma
UACC-62 melanoma = test system: UACC-62 melanoma
MALME-3M melanoma = test system: MALME-3M melanoma
T-47D breast = test system: T-47D breast
NCI-H23 lung = test system: NCI-H23 lung
OVCAR-5 ovarian = test system: OVCAR-5 ovarian
HCC-2998 colon = test system: HCC-2998 colon
NCI-H226 lung = test system: NCI-H226 lung

C=C(F)C(=O)N1CCN(c2nc(OC[C@@H]3CCCN3C)nc3c2CCN(c2cccc4cccc(Cl)c24)C3)C[C@@H]1CC#N
GI50 (TK-10 renal): 925 nM
TGI (TK-10 renal): 2160 nM
GI50 (MDA-MB-468 breast): 275 nM
TGI (MDA-MB-468 breast): 1110 nM
GI50 (MCF7 breast): 1190 nM
TGI (MCF7 breast): 2430 nM
GI50 (UO-31 renal): 1150 nM
TGI (UO-31 renal): 2370 nM
GI50 (HT29 colon): 652 nM
TGI (HT29 colon): 1930 nM
GI50 (BT-549 breast): 1210 nM
TGI (BT-549 breast): 2450 nM
GI50 (PC-3 prostate): 723 nM
TGI (PC-3 prostate): 2010 nM
GI50 (SF-539 CNS): 472 nM
TGI (SF-539 CNS): 1520 nM
GI50 (RPMI-8226 leukemia): 165 nM
TGI (RPMI-8226 leukemia): 491 nM
GI50 (HCT-116 colon): 326 nM
TGI (HCT-116 colon): 1350 nM
GI50 (MOLT-4 leukemia): 182 nM
TGI (MOLT-4 leukemia): 384 nM
GI50 (SF-268 CNS): 542 nM
TGI (SF-268 CNS): 1660 nM
GI50 (A549 NSCLC): 561 nM
TGI (A549 NSCLC): 1840 nM
GI50 (M14 melanoma): 692 nM
TGI (M14 melanoma): 1920 nM
GI50 ([…]-0 renal): 509 nM
TGI (786-0 renal): 1780 nM
GI50 (RXF 393 renal): 379 nM
TGI (RXF 393 renal): 1560 nM
GI50 (HOP-92 NSCLC): 341 nM
TGI (HOP-92 NSCLC): 931 nM
GI50 (SK-MEL-5 melanoma): 564 nM
TGI (SK-MEL-5 melanoma): 1810 nM
GI50 (OVCAR-4 ovarian): 853 nM
TGI (OVCAR-4 ovarian): 2120 nM
GI50 (SF-295 CNS): 1480 nM
TGI (SF-295 CNS): 2810 nM
GI50 (SR leukemia): 134 nM
TGI (SR leukemia): 512 nM
GI50 (A498 renal): 471 nM
TGI (A498 renal): 1590 nM
GI50 (NCI/ADR-RES ovarian): 411 nM
TGI (NCI/ADR-RES ovarian): 1440 nM
GI50 (SNB-19 CNS): 745 nM
TGI (SNB-19 CNS): 1960 nM
GI50 (NCI-H322M lung): 1270 nM
TGI (NCI-H322M lung): 2590 nM
GI50 (HL-60(TB) leukemia): 637 nM
TGI (HL-60(TB) leukemia): 1820 nM
GI50 (SK-MEL-28 melanoma): 1130 nM
TGI (SK-MEL-28 melanoma): 2360 nM
GI50 (NCI-H522 lung): 255 nM
TGI (NCI-H522 lung): 861 nM
GI50 (SW-620 colon): 1120 nM
TGI (SW-620 colon): 2350 nM
GI50 (NCI-H460 NSCLC): 414 nM
TGI (NCI-H460 NSCLC): 1390 nM
GI50 (UACC-257 melanoma): 749 nM
TGI (UACC-257 melanoma): 2020 nM
GI50 (LOX IMVI melanoma): 1100 nM
TGI (LOX IMVI melanoma): 2310 nM
GI50 (COLO 205 colon): 564 nM
TGI (COLO 205 colon): 1740 nM
GI50 (MDA-MB-435 melanoma): 1270 nM
TGI (MDA-MB-435 melanoma): 2550 nM
GI50 (U251 glioblastoma): 285 nM
TGI (U251 glioblastoma): 994 nM
GI50 (SN12C renal): 1200 nM
TGI (SN12C renal): 2440 nM
GI50 (KM12 colon): 561 nM
TGI (KM12 colon): 1750 nM
GI50 (OVCAR-8 ovarian): 405 nM
TGI (OVCAR-8 ovarian): 1360 nM
GI50 (MDA-MB-231 breast): 417 nM
TGI (MDA-MB-231 breast): 1420 nM
GI50 (ACHN renal): 992 nM
TGI (ACHN renal): 2160 nM
GI50 (SK-OV-3 ovarian): 1070 nM
TGI (SK-OV-3 ovarian): 2280 nM
GI50 (IGROV1 ovarian): 1290 nM
TGI (IGROV1 ovarian): 2610 nM
GI50 (HOP-62 NSCLC): < 10 nM
TGI (HOP-62 NSCLC): 1390 nM
GI50 (DU-145 prostate): 1210 nM
TGI (DU-145 prostate): 2480 nM
GI50 (HCT-15 colon): 568 nM
TGI (HCT-15 colon): 1710 nM
GI50 (CCRF-CEM leukemia): 351 nM
TGI (CCRF-CEM leukemia): 1340 nM
GI50 (OVCAR-3 ovarian): 657 nM
TGI (OVCAR-3 ovarian): 1880 nM
GI50 (K-562 leukemia): 253 nM
TGI (K-562 leukemia): 1320 nM
GI50 (CAKI-1 renal): 499 nM
TGI (CAKI-1 renal): 1690 nM
GI50 (SK-MEL-2 melanoma): 484 nM
TGI (SK-MEL-2 melanoma): 1630 nM
GI50 (UACC-62 melanoma): 692 nM
TGI (UACC-62 melanoma): 1910 nM
GI50 (MALME-3M melanoma): 1330 nM
TGI (MALME-3M melanoma): 2610 nM
GI50 (T-47D breast): 430 nM
TGI (T-47D breast): 1900 nM
GI50 (NCI-H23 lung): < 10 nM
GI50 (OVCAR-5 ovarian): 386 nM
TGI (OVCAR-5 ovarian): 1190 nM
GI50 (HCC-2998 colon): 1080 nM
TGI (HCC-2998 colon): 2280 nM
GI50 (NCI-H226 lung): 915 nM
TGI (NCI-H226 lung): 2140 nM
